Assay results as given in US8158587B2, “Compound having histone deacetylase-inhibiting activity, and pharmaceutical composition comprising the compound as an active ingredient” (Kyushu Institute of Technology, priority 2006, dated 2012).

How the values were obtained:
human HDAC1 = molecular target: T1, human HDAC1 (Homo sapiens, UniProt Q13547); assay: HDAC-inhibiting activity, coumarin-labeled acetylated histone peptide assay; format: biochemical; settings: human HDAC1 from transfected 293T cells; 37° C., 30 minutes
T1 construct: made in house; host or cells: 293T cells (transient transfection, anti-FLAG immunoprecipitation, FLAG peptide elution)
T1 sequence (Q13547 whole entry): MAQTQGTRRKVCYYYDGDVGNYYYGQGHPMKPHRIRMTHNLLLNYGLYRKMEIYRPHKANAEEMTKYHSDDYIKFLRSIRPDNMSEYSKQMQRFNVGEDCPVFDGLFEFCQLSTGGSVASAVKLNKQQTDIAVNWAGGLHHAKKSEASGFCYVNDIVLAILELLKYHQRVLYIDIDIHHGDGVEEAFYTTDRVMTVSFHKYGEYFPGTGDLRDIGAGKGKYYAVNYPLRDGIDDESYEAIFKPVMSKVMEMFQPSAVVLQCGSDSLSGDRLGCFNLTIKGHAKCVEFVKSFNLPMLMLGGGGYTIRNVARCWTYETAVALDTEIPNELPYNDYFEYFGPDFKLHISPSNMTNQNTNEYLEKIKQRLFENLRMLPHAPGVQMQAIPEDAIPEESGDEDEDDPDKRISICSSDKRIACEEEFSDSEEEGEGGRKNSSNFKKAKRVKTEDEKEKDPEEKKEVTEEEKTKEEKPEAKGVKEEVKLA
Procedure: In carrying out HDAC-inhibiting activity measurements, HDAC solutions were prepared in the following manner. In each 100-mm dish, there were sowed 1×10^7 293T cells and, after 24 hours, they were transfected with a vector (5 μg) expressing human HDAC1 or HDAC4 or murine HDAC6 using the LipofectAmine 2000 reagent (Invitrogen). The human HDAC1 expression vector used was pcDNA3-HD1 (Yang, W. M., Yao, Y. L., Sun, J. M., Davie, J. R. & Seto, E. (1997) J. Biol. Chem. 272, 28001-28007), the human HDAC4 expression vector used was pcDNA3-HD4 (Fischle, W., Emiliani, S., Hendzel, M. J., Nagase, T., Nomura, N., Voelter, W. & Verdin, E. (1999) J. Biol. Chem. 274, 11713-11720), and the murine HDAC6 expression vector used was pcDNA3-mHDA2/HDAC6 (Verdel, A. & Khochbin, S. (1999) J. Biol. Chem. 274, 2440-2445).
After 24 hours of incubation, cells were recovered, washed with PBS, suspended in lysis buffer (50 mM Tris-HCl (pH 7.5), 120 mM NaCl, 5 mM EDTA, 0.5% Nonidet P-40), and sonicated. The supernatant was collected by centrifugation and then deprived of nonspecific proteins using Protein A/G plus agarose beads (Santa Cruz Biotechnologies, Inc.). Thereafter, anti-FLAG M2 antibody (Sigma-Aldrich Inc.) was added, and the reaction was allowed to proceed at 4° C. for 2 hours.
To this were added agarose beads, the reaction was allowed to proceed at 4° C. for 3 hours, and the agarose beads were washed three times with lysis buffer and then once with HD buffer (20 mM Tris-HCl (pH 8.0), 150 mM NaCl, 10% glycerol). The protein bound to the agarose beads was recovered by 1 hour of incubation with FLAG peptide (40 μg) (Sigma-Aldrich Inc.) in HD buffer (200 μl) at 4° C., and the liquid recovered was used, as a reactant solution, in the HDAC-inhibiting activity measurement described below.
HDAC-inhibiting activity evaluation in each in vitro system was made as follows. Each test compound was dissolved in DMSO, a stock solution with a concentration of 10 mM was thus prepared and this was used as an inhibitor stock solution. The assay was carried out by incubating the HDAC solution and a coumarin-labeled acetylated histone peptide solution in the presence of the test compound at 37° C. for 30 minutes (reaction volume 20 μl). To the reaction mixture was added 30 μl of trypsin, and the aminomethylcoumarin released by the enzymatic reaction was assayed using a fluorescent plate reader. In a negative control assay, no inhibitor was added to the reaction system and the same procedure was carried out.

[1] = system: brain tumor cell line SF-539; assay: Human cancer cell line panel, proliferation (sulforhodamine B); format: cell-based; settings: SF-539, 2 days of cultivation; read-out: 50% inhibitory concentration, proliferation
From the text: (§1) The characteristics of the human cancer cell proliferation-inhibiting activity of the compounds of the present invention were examined by the “method of evaluating the mechanisms of action of compounds using a panel of human cancer cell lines” as proposed by Yamori et al. (cf. Gan to Kagaku Ryoho (Cancer and Chemotherapy) 29 Suppl. II (2002) and Cancer Chemother. Pharmacol. 52 Suppl. I, S74-79 (2003)).
(§2) This system includes […] (7 lung cancer, 6 stomach cancer, 5 colon cancer, 5 ovarian cancer, 6 brain tumor, […], 2 kidney cancer and 2 prostate cancer cell lines as well as one melanoma line) and the method comprises measuring the in vitro drug susceptibilities of those cancer cell lines and expressing the differences in drug susceptibility among the respective cancer cell lines as a fingerprint. […] By utilizing this property, it is possible to estimate the mechanisms of action of a compound. The above method is also characterized in that an anticancer substance showing new and unique mechanisms of action different from those of the existing anticancer agents can be selected.
(§3) Cancer cells of each cell line are sowed onto a 96-well plate, a sample solution is added on the next day and, after 2 days of cultivation, the cell proliferation is measured by colorimetry using sulforhodamine B. The deviations in effective concentration for the respective cancer cell lines from the mean effective drug concentration for the 39 cancer cell lines subjected to measurement are calculated and shown in the form a fingerprint.

[2] = system: melanoma cell line LOX-IMVI; assay: as above; format: cell-based; settings: 2 days of cultivation, read-out: 50% inhibitory concentration, proliferation
From the text: as §1, §2, §3

[3] = system: stomach cancer cell line MKN1; assay: as above; format: cell-based; settings: MKN1, 2 days of cultivation; read-out: 50% inhibitory concentration, proliferation
From the text: as §1, §2, §3

[4] = system: breast cancer cell line BSY-1; assay: as above; format: cell-based; settings: BSY-1, 2 days of cultivation; read-out: 50% inhibitory concentration, proliferation
From the text: as §1, §2, §3

[5] = system: lung cancer cell line A549; assay: as above; format: cell-based; settings: A549, 2 days of cultivation; read-out: 50% inhibitory concentration, proliferation
From the text: as §1, §2, §3

[6] = system: kidney cancer cell line RXF-631L; assay: as above; format: cell-based; settings: 2 days of cultivation, read-out: 50% inhibitory concentration, proliferation
From the text: as §1, §2, §3

Compound | IC50 (human HDAC1) [nM] | IC50 [1] [nM] | IC50 [2] [nM] | IC50 [3] [nM] | IC50 [4] [nM] | IC50 [5] [nM] | IC50 [6] [nM]
CC1(C)NC(=O)[C@H](CCCCCSCc2ccncc2)NC(=O)[C@H]2CCCN2C(=O)[C@H](Cc2ccccc2)NC1=O [Ky-26, cyclo(-L-Am7(4-pyridylmethyl)-Aib-L-Phe-D-Pro-)] | 50 | ≤ 100 | ≤ 100 | ≤ 100 | ≤ 100 | ≤ 100 | ≤ 100
CC(=O)CSCCCCC[C@@H]1NC(=O)[C@H]2CCCN2C(=O)[C@H](Cc2ccccc2)NC(=O)C(C)(C)NC1=O [Ky-72, cyclo(-L-Am7(acetonyl)-Aib-L-Phe-D-Pro-)] |  | ≤ 100 | ≤ 100 | ≤ 100 | ≤ 100 | ≤ 100 | ≤ 100
